Source: patent US12509451B2, “Heteroaryl amide inhibitors of CD38” (NAPA THERAPEUTICS LTD., priority 2020, dated 2025)

Assays:
[1] = target: T1, recombinant human CD38 Protein (Homo sapiens, UniProt P28907); test: Fluorescence-based NAD+ hydrolase activity assay with human recombinant CD38 protein (Assay 3); type: biochemical; conditions: read-out: Assay 3 Arithmetic mean IC50
T1 construct: purchased R&D System
T1 sequence (P28907 1-300): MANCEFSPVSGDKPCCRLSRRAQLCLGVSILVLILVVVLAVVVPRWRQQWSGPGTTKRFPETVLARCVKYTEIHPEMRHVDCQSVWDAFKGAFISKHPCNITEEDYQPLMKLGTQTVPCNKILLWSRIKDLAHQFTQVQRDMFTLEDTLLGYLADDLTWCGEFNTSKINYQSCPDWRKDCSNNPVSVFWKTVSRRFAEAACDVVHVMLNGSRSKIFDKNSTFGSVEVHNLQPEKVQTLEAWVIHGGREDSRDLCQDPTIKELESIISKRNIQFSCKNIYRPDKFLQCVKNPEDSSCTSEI
Description: This protocol was modified from the following references (Muller et al. (1983); (Schultz et al. (2018); (Matalonga et al. (2017); and de Oliveira et al. (2018), supra.
(§1) NAD+ hydrolase activity of the human recombinant CD38 protein treated with test compounds was measured using a fluorescence-based assay. Briefly, recombinant human CD38 Protein (R&D System) was resuspended in 44 μl/well of Sucrose-Tris Buffer (Sucrose 0.25 M, Tris pH 7.4 40 mM) and plated in a 96-well black plate (CORNING) at a density of 10 ng/well.
Each test compound was received in a powder state and dissolved in DMSO as a 25 mM stock solution. Each test compound was serially diluted in order to generate a dose-response curve. The dilution series of each test compound in DMSO was prepared at 50× the concentrations to be assayed. Each test compound was diluted to generate a 5-fold dilution series of 8 concentrations from 20 μM to 0.256 nM in order to assay 8 final concentrations ranging from ranging from 400 nM to 25.6 pM. One μl of the 50× concentration compound series was added to each well of the plate containing 10 ng protein in Sucrose-Tris buffer.
The reaction was started adding nicotinamide 1,N^6-etheno-adenine dinucleotide (Sigma Aldrich) to reach a final concentration of 80 µM. The samples were excited at 321-15 nm and the emission of fluorescence was measured at 410-20 nm at 37° C. every minute for 1 hr in a Clariostar® microplate reader (BMG LABTECH). NAD+ hydrolase activity was calculated as the slope of the linear portion of the fluorescence-time curve using the MARS data analysis software (BMG LABTECH). The data were uploaded in the Collaborative Drug Design (CDD) Software and for each compound the IC50 was calculated by the software. […] For each plate, the z-factor was also calculated as a plate quality using the CDD software.

[2] = target: T1, recombinant human CD38 Protein; test: Fluorescence-based NAD+ cyclase activity assay with human recombinant CD38 protein (Assay 2); type: biochemical; conditions: read-out: Assay 2 Arithmetic mean IC50
Description: This protocol was modified from the de Oliveira et al., 2018 reference, supra.
as §1, with “cyclase” for “hydrolase”, “125” for “10”
Each test compound was received in a powder state and dissolved in DMSO as a 25 mM stock solution. Each test compound was serially diluted in order to generate a dose-response curve. The dilution series of each test compound in DMSO was prepared at 50 times the concentrations to be assayed. Each test compound was diluted to generate a 5-fold dilution series of 8 concentrations from 100 μM to 32 nM in order to assay 8 final concentrations ranging from 2 μM to 0.64 nM. One μl of the 50× concentration compound series was added to each well of the plate containing 125 ng of protein in Sucrose-Tris buffer.
The reaction was started adding nicotinamide guanine dinucleotide (NGD+) (Sigma Aldrich) to reach a final concentration of 150 µM. The samples were excited at 337-15 nm, and the emission of fluorescence was measured at 442-20 nm at 37° C. every minute for 1 hr in a Clariostar microplate reader (BMG LABTECH). NAD+ cyclase activity was calculated as the slope of the linear portion of the fluorescence-time curve using the MARS data analysis software (BMG LABTECH). The data were uploaded in the Collaborative Drug Design (CDD) Software, and for each compound the IC50 was calculated by the software. For each plate, the z-factor was also calculated as a plate quality using the CDD software.

In the case of `CNC(=O)c1ccc(NC(=O)c2cccc(-n3ccnc3)n2)cn1` [Compound 2], the IC50 [1] is reported as less than 0.001 µM and the IC50 [2] is reported as 0.001 to 0.05 µM.
`NC(=O)c1ccc(NC(=O)c2cccc(-n3ccnc3)n2)cn1` [Compound 3] gave an IC50 [1] of 0.001 to 0.05 µM and an IC50 [2] of 0.001 to 0.05 µM.
With `Cc1cc(NC(=O)c2cccc(-n3ccnc3)n2)cc(C)n1` [Compound 7] the IC50 [1] was 0.001 to 0.05 µM and the IC50 [2] was 1 to 10 µM.
`O=C(Nc1ccnc(F)c1)c1cccc(-n2ccnc2)n1` [Compound 8] was tested, and the IC50 [1] was 0.001 to 0.05 µM and the IC50 [2] was 0.051 to 1 µM.
Molecule `O=C(Nc1ccc(C(F)(F)F)nc1)c1cccc(-n2ccnc2)n1` [Compound 9] has an IC50 [1] of 0.001 to 0.05 µM and an IC50 [2] of 0.051 to 1 µM.
In the case of `Cc1cc(NC(=O)c2cccc(-n3ccnc3)n2)ccn1` [Compound 11], the IC50 [1] is reported as 0.001 to 0.05 µM and the IC50 [2] is reported as 0.051 to 1 µM.
`COc1cc(NC(=O)c2cccc(-n3ccnc3)n2)ccn1` [Compound 12] gave an IC50 [1] of 0.001 to 0.05 µM and an IC50 [2] of 0.051 to 1 µM.
`O=C(Nc1ccncc1)c1cccc(-n2ccnc2)n1` [Compound 13] gave an IC50 [1] of 0.001 to 0.05 µM and an IC50 [2] of 0.051 to 1 µM.
In the case of `Cc1ccc(NC(=O)c2cccc(-n3ccnc3)n2)cn1` [Compound 14], the IC50 [1] is reported as 0.001 to 0.05 µM and the IC50 [2] is reported as 1 to 10 µM.
In the case of `CC(=O)N(C)c1ccc(NC(=O)c2cccc(-n3ccnc3)n2)cn1` [Compound 15], the IC50 [1] is reported as 0.001 to 0.05 µM and the IC50 [2] is reported as 1 to 10 µM.
Molecule `CC(=O)Nc1ccc(NC(=O)c2cccc(-n3ccnc3)n2)cn1` [Compound 16] has an IC50 [1] of 0.001 to 0.05 µM and an IC50 [2] of 0.051 to 1 µM.
With `COc1ccc(NC(=O)c2cccc(-n3ccnc3)n2)cn1` [Compound 18] the IC50 [1] was 0.001 to 0.05 µM and the IC50 [2] was 1 to 10 µM.
With `O=C(Nc1cccnc1)c1cccc(-n2ccnc2)n1` [Compound 20] the IC50 [1] was 0.001 to 0.05 µM and the IC50 [2] was 1 to 10 µM.
Molecule `O=C(Nc1ccc(F)nc1)c1cccc(-n2ccnc2)n1` [Compound 22] has an IC50 [1] of 0.001 to 0.05 µM and an IC50 [2] of 1 to 10 µM.
`O=C(Nc1ccncn1)c1cccc(-n2ccnc2)n1` [Compound 24] gave an IC50 [1] of 0.001 to 0.05 µM and an IC50 [2] of 1 to 10 µM.
Work on `COC(=O)c1ccc(NC(=O)c2cccc(-n3ccnc3)n2)cn1` [Compound 27] yielded an IC50 [1] of 0.001 to 0.05 µM and an IC50 [2] of 0.051 to 1 µM.
`O=C(Nc1ccnc(C(F)(F)F)c1)c1cccc(-n2ccnc2)n1` [Compound 28] was tested, and the IC50 [1] was 0.001 to 0.05 µM and the IC50 [2] was 1 to 10 µM.
Work on `O=C(Nc1ccnc(C(F)(F)F)c1)c1cc(OCc2ccccc2)cc(-n2ccnc2)n1` [Compound 29, 4-(benzyloxy)-6-(1H-imidazol-1-yl)-N-[2-(trifluoromethyl)pyridin-4-yl]pyridine-2-carboxamide] yielded an IC50 [1] of 0.001 to 0.05 µM and an IC50 [2] of 0.051 to 1 µM.
In the case of `O=C(Nc1ccnc(C(F)(F)F)c1)c1cc(OCC2CCOCC2)cc(-n2ccnc2)n1` [Compound 30, 6-(1H-imidazol-1-yl)-4-((tetrahydro-2H-pyran-4-yl)methoxy)-N-(2-(trifluoromethyl)pyridin-4-yl)picolinamide], the IC50 [1] is reported as 0.001 to 0.05 µM and the IC50 [2] is reported as 0.051 to 1 µM.
In the case of `COCCOc1cc(C(=O)Nc2ccnc(C(F)(F)F)c2)nc(-n2ccnc2)c1` [Compound 31, 6-(1H-imidazol-1-yl)-4-(2-methoxyethoxy)-N-(2-(trifluoromethyl)pyridin-4-yl)picolinamide], the IC50 [1] is reported as 0.001 to 0.05 µM and the IC50 [2] is reported as 0.051 to 1 µM.
In the case of `O=C(Nc1ccnc(C(F)(F)F)c1)c1cc(OC2CC2)cc(-n2ccnc2)n1` [Compound 32, 4-cyclopropoxy-6-(1H-imidazol-1-yl)-N-(2-(trifluoromethyl)pyridin-4-yl)picolinamide], the IC50 [1] is reported as less than 0.001 µM and the IC50 [2] is reported as 0.051 to 1 µM.
`CN(C)CCOc1cc(C(=O)Nc2ccnc(C(F)(F)F)c2)nc(-n2ccnc2)c1` [Compound 33] was tested, and the IC50 [1] was less than 0.001 µM and the IC50 [2] was 0.051 to 1 µM.
`CC1(Oc2cc(C(=O)Nc3ccnc(C(F)(F)F)c3)nc(-n3ccnc3)c2)COC1` [Compound 34, 6-(1H-imidazol-1-yl)-4-((3-methyloxetan-3-yl)oxy)-N-(2-(trifluoromethyl)pyridin-4-yl)picolinamide] gave an IC50 [1] of 0.001 to 0.05 µM and an IC50 [2] of 0.051 to 1 µM.
Work on `COc1cc(C(=O)Nc2ccnc(C(F)(F)F)c2)nc(-n2ccnc2)c1` [Compound 35, 6-(1H-imidazol-1-yl)-4-methoxy-N-(2-(trifluoromethyl)pyridin-4-yl)picolinamide] yielded an IC50 [1] of 0.001 to 0.05 µM and an IC50 [2] of 0.051 to 1 µM.
`COc1cc(C(=O)Nc2cccnc2)nc(-n2ccnc2)c1` [Compound 36] was tested, and the IC50 [1] was 0.001 to 0.05 µM and the IC50 [2] was 0.051 to 1 µM.
`COc1cc(C(=O)Nc2ccnc(C(F)(F)F)c2)nc(-n2ccnc2)n1` [Compound 37, 2-(1H-imidazol-1-yl)-6-methoxy-N-(2-(trifluoromethyl)pyridin-4-yl)pyrimidine-4-carboxamide] showed an IC50 [1] of less than 0.001 µM and an IC50 [2] of 0.051 to 1 µM.
With `CCOc1cc(C(=O)Nc2ccnc(C(F)(F)F)c2)nc(-n2ccnc2)n1` [Compound 38] the IC50 [1] was less than 0.001 µM and the IC50 [2] was 0.051 to 1 µM.
`COCCOc1cc(C(=O)Nc2ccnc(C(F)(F)F)c2)nc(-n2ccnc2)n1` [Compound 39, 2-(1H-imidazol-1-yl)-6-(2-methoxyethoxy)-N-(2-(trifluoromethyl)pyridin-4-yl)pyrimidine-4-carboxamide] showed an IC50 [1] of less than 0.001 µM and an IC50 [2] of 0.001 to 0.05 µM.
Molecule `O=C(Nc1ccnc(C(F)(F)F)c1)c1cc(OC2CC2)nc(-n2ccnc2)n1` [Compound 40] has an IC50 [1] of 0.001 to 0.05 µM and an IC50 [2] of 0.051 to 1 µM.
For `Cn1cncc1-c1cccc(C(=O)Nc2cccnc2)n1` [Compound 42, 6-(1-methyl-1H-imidazol-5-yl)-N-(pyridin-3-yl)picolinamide], the IC50 [1] was 0.001 to 0.05 µM and the IC50 [2] was 1 to 10 µM.
`Cn1cncc1-c1cccc(C(=O)Nc2ccc(C(F)(F)F)nc2)n1` [Compound 43] was tested, and the IC50 [1] was 0.001 to 0.05 µM and the IC50 [2] was 0.051 to 1 µM.
With `Cc1cc(C(=O)Nc2ccncc2)nc(-c2nccn2C)c1` [Compound 45] the IC50 [1] was 0.001 to 0.05 µM and the IC50 [2] was 0.051 to 1 µM.
`Cn1ccnc1-c1cccc(C(=O)Nc2ccc(C(F)(F)F)nc2)n1` [Compound 47] gave an IC50 [1] of 0.001 to 0.05 µM and an IC50 [2] of 0.051 to 1 µM.
Work on `Cn1ccnc1-c1cccc(C(=O)Nc2cccnc2)n1` [Compound 48] yielded an IC50 [1] of 0.001 to 0.05 µM and an IC50 [2] of 1 to 10 µM.
`Cc1cc(C(=O)Nc2cccnc2)nc(-n2ccnc2)n1` [Compound 49, 2-(1H-imidazol-1-yl)-6-methyl-N-(pyridin-3-yl)pyrimidine-4-carboxamide] gave an IC50 [1] of less than 0.001 µM and an IC50 [2] of 0.001 to 0.05 µM.
`Cc1cc(C(=O)Nc2ccncc2)nc(-n2ccnc2)n1` [Compound 50] showed an IC50 [1] of less than 0.001 µM and an IC50 [2] of 0.001 to 0.05 µM.
With `O=C(Nc1ccnc(C(F)(F)F)c1)c1cc(C2CC2)nc(-n2ccnc2)n1` [Compound 51, 6-cyclopropyl-2-(1H-imidazol-1-yl)-N-(2-(trifluoromethyl)pyridin-4-yl)pyrimidine-4-carboxamide] the IC50 [1] was less than 0.001 µM and the IC50 [2] was 0.051 to 1 µM.
For `Cc1cc(C(=O)Nc2ccncc2)nc(-n2ccnc2)c1` [Compound 52, 6-(1H-imidazol-1-yl)-4-methyl-N-(pyridin-4-yl)picolinamide], the IC50 [1] was 0.001 to 0.05 µM and the IC50 [2] was 0.001 to 0.05 µM.
`Cc1cc(C(=O)Nc2cccnc2)nc(-n2ccnc2)c1` [Compound 53] gave an IC50 [1] of 0.001 to 0.05 µM and an IC50 [2] of 0.051 to 1 µM.
In the case of `Cc1cc(C(=O)Nc2ccc(C(N)=O)nc2)nc(-n2ccnc2)c1` [Compound 54, N-(6-carbamoylpyridin-3-yl)-6-(1H-imidazol-1-yl)-4-methylpicolinamide], the IC50 [1] is reported as 0.001 to 0.05 µM and the IC50 [2] is reported as 0.001 to 0.05 µM.
`Cc1cc(C(=O)Nc2ccnc(C(N)=O)c2)nc(-n2ccnc2)c1` [Compound 55] showed an IC50 [1] of less than 0.001 µM and an IC50 [2] of 0.051 to 1 µM.
With `CNC(=O)c1cc(NC(=O)c2cc(C)cc(-n3ccnc3)n2)ccn1` [Compound 56] the IC50 [1] was 0.001 to 0.05 µM and the IC50 [2] was 0.051 to 1 µM.
